Key:
[1] = target: T1, ROS1-wt (Homo sapiens, UniProt P08922); assay: Biochemical kinase assay, ROS1-wt kinase domain; details: apparent inhibitory constant, Morrison equation; ATP 2 mM in substrate solution; read-out: ROS1-wt Ki^app
T1 construct: purchased Carna 08-163
Experimental: (§1) First, 250 nL of compound dissolved in DMSO (100-fold of the desired concentration) was dispensed into a 384-well plate. A 12.5 μL substrate solution containing ATP (2 mM) and fluorogenic phosphorylation substrate AQT0101 (26 μM for ALK and ROS1, AssayQuant) or AQT0104 (26 μM for TRKA, AssayQuant) in buffer (50 mM HEPES pH 7.5, 0.01% Brij-35, 0.5 mM EGTA, 10 mM MgCl2) was added and mixed thoroughly. […] The plate was sealed and read by SpectraMax Paradigm at λ=485 nm every 2 minutes for 120 minutes at 30° C. Initial rates of reaction (v) were calculated from the change in fluorescence intensity over time during the initial, linear portion of the reaction. Finally, apparent inhibitory constants (Ki^app) were determined from regression of v and I (inhibitor concentration) to Morrison Equation (E=enzyme concentration): […]

[2] = target: T2, ROS1-G2032R (Homo sapiens, UniProt P08922, G2032R); assay: Biochemical kinase assay, ROS1-G2032R kinase domain; details: apparent inhibitory constant, Morrison equation; ATP 2 mM in substrate solution; read-out: ROS1-G2032R Ki^app
T2 construct: purchased SignalChem R14-12BG
Experimental: as §1

[3] = target: T3, TRKA-wt (Homo sapiens, UniProt P04629); assay: Biochemical kinase assay, TRKA-wt kinase domain; details: apparent inhibitory constant, Morrison equation; ATP 2 mM in substrate solution; read-out: TRKA-wt Ki^app
T3 construct: or TRKA-wt (1 nM, BPS Bio, 40280) kinase domains in buffer; purchased BPS Bio 40280
Experimental: (§2) First, 250 nL of compound dissolved in DMSO (100-fold of the desired concentration) was dispensed into a 384-well plate. A 12.5 μL substrate solution containing ATP (2 mM) and fluorogenic phosphorylation substrate AQT0101 (26 μM for ALK and ROS1, AssayQuant) or AQT0104 (26 μM for TRKA, AssayQuant) in buffer (50 mM HEPES pH 7.5, 0.01% Brij-35, 0.5 mM EGTA, 10 mM MgCl2) was added and mixed thoroughly. Then, a 12.5 μL kinase solution containing ALK-wt (1.5 nM, Carna, 08-518), ALK ALK L1196M/G1202R (3 nM, SignalChem, A19-12NG), ROS1-wt (0.6 nM, Carna, 08-163), ROS1-G2032R (0.5 nM, SignalChem, R14-12BG), or TRKA-wt (1 nM, BPS Bio, 40280) kinase domains in buffer ([…] HEPES pH 7.5, 0.01% Brij-35, 2% glycerol, 0.4 mg/mL BSA, 0.5 mM EGTA, and 10 mM MgCl2) was added and mixed thoroughly. The plate was sealed and read by SpectraMax Paradigm at λ=485 nm every 2 minutes for 120 minutes at 30° C. Initial rates of reaction (v) were calculated from the change in fluorescence intensity over time during the initial, linear portion of the reaction. Finally, apparent inhibitory constants (Ki^app) were determined from regression of v and I (inhibitor concentration) to Morrison Equation (E=enzyme concentration): […]

[4] = system: TPM3-NTRK1-wt IC50 / primary target IC50 (e.g. CD74-ROS1-wt); assay: TRKA selectivity in Ba/F3 cells (TRKA potency divided by primary target potency); format: cell-based; details: for TPM3-NTRK1-wt/CD74-ROS1-G2032R selectivity ratio: TRKA potency / CD74-ROS1-G2032R potency; for TPM3-NTRK1-wt/EML4-ALK-L1196M-G1202R selectivity ratio: TRKA potency / EML4-ALK-L1196M-G1202R potency; for TPM3-NTRK1-wt/CD74-ROS1-wt selectivity ratio: TRKA potency / CD74-ROS1-wt potency; for TPM3-NTRK1-wt/EML4-ALK-wt selectivity ratio: TRKA potency / EML4-ALK-wt potency
Experimental: TRKA selectivity was calculated by dividing a compound's TRKA potency by its primary target potency (e.g. TPM3-NTRK1-wt IC50/CD74-ROS1-wt IC50). Compound selectivity can be interpreted by binning ratio values: bin A for very high selectivity, ratio >30-fold; bin B for high selectivity, ratio >10-fold; bin C for moderate selectivity, ratio ≥1; and bin D for low selectivity, ratio <1. […] (nd=not determined).

[5] = target: T4, Ba/F3 cells EML4-ALK L1196M/G1202R (variant 1) (Homo sapiens, UniProt Q9UM73, G1202R/L1196M); assay: Ba/F3 cell proliferation assay, EML4-ALK L1196M/G1202R (variant 1); format: cell-based; details: 72 hours, CellTiter-Glo
T4 construct: echinoderm microtubule-associated protein-like 4 (EML4) gene and the ALK tyrosine kinase domain; host or cells: Ba/F3 (RIKEN), retroviral pMSCV-puro; the other entry of the earlier key: EML4 (Q9HC35, Echinoderm microtubule-associated protein-like 4)
In short: (§3)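 Ba/F3 lines stably expressing the fusion (retroviral pMSCV-puro, selected by IL-3 withdrawal plus puromycin 0.8 μg/mL, monoclonal) were seeded at 1,000 cells/well, dosed next day with 3-fold compound dilutions, and incubated 72 hours. CellTiter-Glo luminescence gave percent inhibition; IC50 by four-parameter logistic fit.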

[6] = target: T5, Ba/F3 cells CD74-ROS1 G2032R (Homo sapiens, UniProt P08922, G2032R); assay: Ba/F3 cell proliferation assay, CD74-ROS1 G2032R; format: cell-based; details: 72 hours, CellTiter-Glo
T5 construct: fusion of the C-terminus of ROS1 with the N-terminus of various partner proteins; host or cells: Ba/F3 (RIKEN), retroviral pMSCV-puro; the other entry of the earlier key: CD74 (P04233, HLA class II histocompatibility antigen gamma chain)
In short: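 Viability read by CellTiter-Glo luminescence after 72 h exposure to 3-fold serial compound dilutions, four-parameter logistic fitting giving IC50.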

[7] = target: T6, ALK L1196M/G1202R (Homo sapiens, UniProt Q9UM73, G1202R/L1196M); assay: Biochemical kinase assay, ALK L1196M/G1202R kinase domain; details: apparent inhibitory constant, Morrison equation; ATP 2 mM in substrate solution; read-out: ALK-L1196M-G1202R Ki^app
T6 construct: purchased SignalChem A19-12NG
Experimental: as §2

[8] = target: T7, ALK-wt (Homo sapiens, UniProt Q9UM73); assay: Biochemical kinase assay, ALK-wt kinase domain; details: apparent inhibitory constant, Morrison equation; ATP 2 mM in substrate solution; read-out: ALK-wt Ki^app
T7 construct: purchased Carna 08-518
Experimental: as §2

[9] = target: T8, Ba/F3 cells TPM3-TRKA (Homo sapiens, UniProt P04629); assay: Ba/F3 cell proliferation assay, TPM3-TRKA; format: cell-based; details: 72 hours, CellTiter-Glo, read-out: TPM3-NTRK1-wt IC50
T8 construct: host or cells: Ba/F3 (RIKEN), retroviral pMSCV-puro; the other entry of the earlier key: TPM3 (P06753, Tropomyosin alpha-3 chain)
In short: as §3

[10] = target: T9, Ba/F3 cells CD74-ROS1 wild-type (wt) (Homo sapiens, UniProt P08922); assay: Ba/F3 cell proliferation assay, CD74-ROS1 wild-type; format: cell-based; details: 72 hours, CellTiter-Glo
T9 construct: fusion of the C-terminus of ROS1 with the N-terminus of various partner proteins; host or cells: Ba/F3 (RIKEN), retroviral pMSCV-puro; the other entry of the earlier key: CD74 (P04233, HLA class II histocompatibility antigen gamma chain)
Experimental: The virus was used to infect Ba/F3 cells (RIKEN) at multiplicity of infection=1 for 1 day. Infected cells were rescued in media (RPMI-1640 with 10% fetal bovine serum and 1% streptomycin and penicillin) supplemented with mouse IL-3 (10 ng/mL) for 2 days, and stable cell lines were selected by IL-3 withdrawal and puromycin (0.8 μg/mL) for 7 days. Monoclones were selected by single-cell dilution in IL-3-free medium containing puromycin (0.8 μg/mL).
Cell Proliferation Assay Stable cells were plated at 1,000 cells/well (40 μL) in a 384-well plate for 1 day.
Test compounds (40 nL) were then added in a 3-fold dilution series using the TECAN EVO200 liquid handler and incubated for 72 hours. Plates were equilibrated at room temperature for 15 minutes followed by addition of 40 μL CellTiter-Glo reagent (Promega).
Luminescence was measured on a plate reader. Half-maximal inhibitory concentration (IC50) was calculated from percent inhibition and inhibitor concentration using four-parameter logistic regression. […] (nd=not determined).

[11] = target: T10, Ba/F3 cells EML4-ALK wt (variant 1) (Homo sapiens, UniProt Q9UM73); assay: Ba/F3 cell proliferation assay, EML4-ALK wt (variant 1); format: cell-based; details: 72 hours, CellTiter-Glo
T10 construct: echinoderm microtubule-associated protein-like 4 (EML4) gene and the ALK tyrosine kinase domain; host or cells: Ba/F3 (RIKEN), retroviral pMSCV-puro; the other entry of the earlier key: EML4 (Q9HC35, Echinoderm microtubule-associated protein-like 4)
In short: as §3

T8 sequence (P04629 510-796 limits assumed): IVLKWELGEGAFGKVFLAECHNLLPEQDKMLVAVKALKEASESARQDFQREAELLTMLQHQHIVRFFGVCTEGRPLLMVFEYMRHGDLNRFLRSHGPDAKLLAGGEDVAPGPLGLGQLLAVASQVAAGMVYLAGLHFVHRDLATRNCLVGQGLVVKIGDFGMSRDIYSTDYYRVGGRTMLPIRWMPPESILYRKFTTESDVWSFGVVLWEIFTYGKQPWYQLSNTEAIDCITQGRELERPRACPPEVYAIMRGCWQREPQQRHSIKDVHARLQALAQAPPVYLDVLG
T3 sequence (P04629 510-781 limits assumed): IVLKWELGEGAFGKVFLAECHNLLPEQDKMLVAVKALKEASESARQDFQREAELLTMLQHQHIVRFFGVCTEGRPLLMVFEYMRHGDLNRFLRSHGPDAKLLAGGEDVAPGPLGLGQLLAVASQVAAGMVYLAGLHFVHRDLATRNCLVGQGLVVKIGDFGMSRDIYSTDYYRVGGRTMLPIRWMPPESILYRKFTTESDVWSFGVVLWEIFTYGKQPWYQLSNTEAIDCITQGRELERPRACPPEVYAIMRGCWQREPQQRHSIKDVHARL
T6 sequence (Q9UM73 1116-1392 L1196M/G1202R limits assumed): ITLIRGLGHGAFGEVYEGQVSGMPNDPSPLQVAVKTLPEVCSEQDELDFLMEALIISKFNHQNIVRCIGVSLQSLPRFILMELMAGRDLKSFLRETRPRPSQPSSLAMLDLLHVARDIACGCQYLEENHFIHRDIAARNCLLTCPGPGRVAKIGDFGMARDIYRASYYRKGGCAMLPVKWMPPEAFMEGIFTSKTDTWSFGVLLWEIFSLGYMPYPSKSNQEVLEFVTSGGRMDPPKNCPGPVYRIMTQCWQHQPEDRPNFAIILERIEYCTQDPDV
T2 sequence (P08922 1945-2222 G2032R limits assumed): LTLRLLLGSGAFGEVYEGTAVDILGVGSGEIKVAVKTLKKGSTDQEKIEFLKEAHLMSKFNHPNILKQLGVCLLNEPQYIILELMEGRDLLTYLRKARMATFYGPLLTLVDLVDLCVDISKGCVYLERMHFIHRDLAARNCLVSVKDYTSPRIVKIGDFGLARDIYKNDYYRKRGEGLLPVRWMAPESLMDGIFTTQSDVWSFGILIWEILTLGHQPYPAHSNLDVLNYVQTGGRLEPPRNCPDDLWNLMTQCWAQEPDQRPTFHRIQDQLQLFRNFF
T4 sequence (Q9UM73 with tags, fused parts or gaps L1196M/G1202R): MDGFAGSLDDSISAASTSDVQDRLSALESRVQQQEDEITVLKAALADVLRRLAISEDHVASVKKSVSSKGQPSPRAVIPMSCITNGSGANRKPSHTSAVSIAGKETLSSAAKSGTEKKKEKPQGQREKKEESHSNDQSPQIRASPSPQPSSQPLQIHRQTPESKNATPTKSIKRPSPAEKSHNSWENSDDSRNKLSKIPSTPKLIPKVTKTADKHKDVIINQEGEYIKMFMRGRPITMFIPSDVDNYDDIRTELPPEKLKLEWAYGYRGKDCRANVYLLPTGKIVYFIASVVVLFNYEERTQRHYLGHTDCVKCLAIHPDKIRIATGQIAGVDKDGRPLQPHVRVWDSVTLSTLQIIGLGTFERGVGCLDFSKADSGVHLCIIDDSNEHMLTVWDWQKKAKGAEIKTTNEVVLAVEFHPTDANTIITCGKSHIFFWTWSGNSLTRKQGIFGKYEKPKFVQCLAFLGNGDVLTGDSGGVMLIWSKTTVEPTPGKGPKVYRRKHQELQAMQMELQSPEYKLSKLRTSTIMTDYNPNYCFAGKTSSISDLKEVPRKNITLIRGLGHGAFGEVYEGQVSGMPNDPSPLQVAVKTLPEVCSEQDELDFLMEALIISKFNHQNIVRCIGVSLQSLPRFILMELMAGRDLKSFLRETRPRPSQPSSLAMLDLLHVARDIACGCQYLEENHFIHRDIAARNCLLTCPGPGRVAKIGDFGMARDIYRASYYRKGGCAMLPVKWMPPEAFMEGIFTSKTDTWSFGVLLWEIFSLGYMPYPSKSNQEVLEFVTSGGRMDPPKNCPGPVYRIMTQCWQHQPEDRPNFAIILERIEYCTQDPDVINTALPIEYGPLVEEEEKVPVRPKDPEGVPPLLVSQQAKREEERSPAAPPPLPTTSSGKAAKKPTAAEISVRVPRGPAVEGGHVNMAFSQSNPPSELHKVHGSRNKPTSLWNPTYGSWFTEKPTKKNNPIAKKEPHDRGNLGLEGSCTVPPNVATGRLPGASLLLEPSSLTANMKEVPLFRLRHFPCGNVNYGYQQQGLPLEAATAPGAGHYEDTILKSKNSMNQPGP
T1 sequence (P08922 1945-2222 limits assumed): as the sequence (P08922 1945-2222 G2032R limits assumed) above, with R88G counted along it
T5 sequence (P08922 1883-2347 G2032R limits assumed): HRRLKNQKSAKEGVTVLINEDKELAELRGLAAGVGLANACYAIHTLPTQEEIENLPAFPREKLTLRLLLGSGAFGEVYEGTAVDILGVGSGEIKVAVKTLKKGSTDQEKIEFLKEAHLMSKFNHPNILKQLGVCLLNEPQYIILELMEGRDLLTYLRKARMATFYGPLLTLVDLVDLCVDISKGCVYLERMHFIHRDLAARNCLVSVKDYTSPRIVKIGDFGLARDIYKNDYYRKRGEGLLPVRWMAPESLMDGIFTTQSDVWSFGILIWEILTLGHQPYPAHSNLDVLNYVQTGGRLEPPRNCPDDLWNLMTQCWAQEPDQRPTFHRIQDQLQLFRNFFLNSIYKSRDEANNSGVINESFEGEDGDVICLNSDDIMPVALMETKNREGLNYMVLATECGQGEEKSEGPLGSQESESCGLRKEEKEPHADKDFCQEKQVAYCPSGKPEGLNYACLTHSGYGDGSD
T7 sequence (Q9UM73 1116-1392 limits assumed): as the sequence (Q9UM73 1116-1392 L1196M/G1202R limits assumed) above, with M81L, R87G counted along it
T9 sequence (P08922 1883-2347 limits assumed): as the sequence (P08922 1883-2347 G2032R limits assumed) above, with R150G counted along it
T10 sequence (Q9UM73 with tags, fused parts or gaps): as the sequence (Q9UM73 with tags, fused parts or gaps L1196M/G1202R) above, with M635L, R641G counted along it

Structure (SMILES)	Ki [1]	Ki [2]	Ki [3]	TPM3-NTRK1-wt/CD74-ROS1-G2032R selectivity ratio [4]	TPM3-NTRK1-wt/EML4-ALK-L1196M-G1202R selectivity ratio [4]	IC50 [5]	IC50 [6]	Ki [7]	Ki [8]	IC50 [9]	IC50 [10]	IC50 [11]	TPM3-NTRK1-wt/CD74-ROS1-wt selectivity ratio [4]	TPM3-NTRK1-wt/EML4-ALK-wt selectivity ratio [4]
CCn1ncc2c1-c1cnc(N)c(c1)O[C@H](C)c1cc(F)ccc1-c1c(F)cnn1C2 [Example 8, (19R)-3-ethyl-11,16-difluoro-19-methyl-20-oxa-3,4,8,9,23-pentaazapentacyclo[19.3.1.0^2,^6.0^8,^12.0^13,^18]pentacosa-1(24),2(6),4,9,11,13,15,17,21(25),22-decaen-22-amine]	< 50 nM	< 50 nM	> 500 nM	A (bin A for very high selectivity, ratio >30-fold)	C (bin C for moderate selectivity, ratio ≥1)	50 to 500 nM	0.1 to 50 nM	< 50 nM	< 50 nM	> 500 nM	–	–	–	–
C[C@H]1Oc2cc(cnc2N)-c2c(c(Cl)nn2CC2CC2)Cc2nn(C)nc2-c2ccc(F)cc21 [Example 85, (19R)-5-chloro-3-(cyclopropylmethyl)-16-fluoro-10,19-dimethyl-20-oxa-3,4,9,10,11,23-hexaazapentacyclo [19.3.1.0^2,^6.0^8,^12.0^13,^18]pentacosa-1(24),2(6),4,8,11,13,15,17,21(25),22-decaen-22-amine]	< 50 nM	< 50 nM	> 500 nM	A (bin A for very high selectivity, ratio >30-fold)	A (bin A for very high selectivity, ratio >30-fold)	0.1 to 50 nM	0.1 to 50 nM	< 50 nM	< 50 nM	> 500 nM	0.1 to 50 nM	0.1 to 50 nM	A (bin A for very high selectivity, ratio >30-fold)	A (bin A for very high selectivity, ratio >30-fold)
Cc1nn(CC2CC2)c2c1Cn1ncnc1-c1ccc(F)cc1[C@@H](C)Oc1cc-2cnc1N [Example 64, (19R)-3-(cyclopropylmethyl)-16-fluoro-5,19-dimethyl-20-oxa-3,4,8,9,11,23-hexaazapentacyclo[19.3.1.0^2,^6.0^8,^12.0^13,^18]pentacosa-1(24),2(6),4,9,11,13,15,17,21(25),22-decaen-22-amine]	< 50 nM	< 50 nM	> 500 nM	A (bin A for very high selectivity, ratio >30-fold)	A (bin A for very high selectivity, ratio >30-fold)	50 to 500 nM	0.1 to 50 nM	< 50 nM	< 50 nM	> 500 nM	0.1 to 50 nM	0.1 to 50 nM	A (bin A for very high selectivity, ratio >30-fold)	A (bin A for very high selectivity, ratio >30-fold)
CCn1ncc2c1-c1cnc(N)c(c1)O[C@H](C)c1cc(F)ccc1-c1nccnc1C2 [Example 36, (20R)-3-ethyl-17-fluoro-20-methyl-21-oxa-3,4,9,12,24-pentaazapentacyclo[20.3.1.0^2,^6.0^8,^13.0^14,^19]hexacosa-1(25),2(6),4,8(13),9,11,14,16,18,22(26),23-undecaen-23-amine]	< 50 nM	< 50 nM	50 to 500 nM	A (bin A for very high selectivity, ratio >30-fold)	B (bin B for high selectivity, ratio >10-fold)	0.1 to 50 nM	0.1 to 50 nM	< 50 nM	< 50 nM	50 to 500 nM	–	–	–	–
CCn1ncc2c1-c1cnc(N)c(c1)O[C@H](C)c1cc(F)ccc1-c1cnnn1C2 [Example 2, (19R)-3-ethyl-16-fluoro-19-methyl-20-oxa-3,4,8,9,10,23-hexaazapentacyclo[19.3.1.0^2,^6.0^8,^12.0^13,^18]pentacosa-1(24),2(6),4,9,11,13,15,17,21 (25),22-decaen-22-amine]	< 50 nM	50 to 500 nM	> 500 nM	A (bin A for very high selectivity, ratio >30-fold)	C (bin C for moderate selectivity, ratio ≥1)	> 500 nM	0.1 to 50 nM	50 to 500 nM	< 50 nM	> 500 nM	–	–	–	–

— patent publication US12054498B2, “Heteroaromatic macrocyclic ether chemotherapeutic agents” (Nuvalent, Inc., priority 2020, dated 2024)
